Source: patent US11591355B2 (Peloton Therapeutics, Inc., priority 2017, dated 2023)
Where two headings read alike, the source gives them in different places.

Experiments:
[1] = biological target: T1, Human CD73 (Homo sapiens, UniProt P21589); assay: CD73 Enzyme Assay; format: biochemical
T1 construct: purchased R&D Systems; host or cells: CHO cells
T1 sequence (P21589 27-549): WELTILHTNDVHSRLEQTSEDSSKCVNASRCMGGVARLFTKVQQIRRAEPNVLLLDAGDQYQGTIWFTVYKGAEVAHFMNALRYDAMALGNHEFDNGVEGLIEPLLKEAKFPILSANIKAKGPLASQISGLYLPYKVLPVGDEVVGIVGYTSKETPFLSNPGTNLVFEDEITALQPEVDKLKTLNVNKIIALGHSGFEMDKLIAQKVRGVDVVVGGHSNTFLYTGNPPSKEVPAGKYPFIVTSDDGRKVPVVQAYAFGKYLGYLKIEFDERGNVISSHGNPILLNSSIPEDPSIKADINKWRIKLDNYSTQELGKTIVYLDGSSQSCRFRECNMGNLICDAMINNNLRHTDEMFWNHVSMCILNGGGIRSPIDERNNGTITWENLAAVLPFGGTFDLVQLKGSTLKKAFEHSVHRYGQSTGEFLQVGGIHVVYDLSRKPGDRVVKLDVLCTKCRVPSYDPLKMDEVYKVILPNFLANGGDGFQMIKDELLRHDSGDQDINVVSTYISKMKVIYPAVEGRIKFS

[2] = biological target: T2, CD73 on U138 human neuroglioma cells (Homo sapiens, UniProt P21589); assay: CD73 Cell-Based Assay; conditions: U138 cells, AMP substrate, 2 hours at 37° C., inorganic phosphate by malachite green
T2 construct: U138 cells were obtained from ATCC and cultured in DMEM with 10% FBS; host or cells: U138 human neuroglioma cells
T2 sequence (P21589 27-549): T1 sequence (P21589 27-549)
Description: U138 human neuroglioma cells were used in these experiments. U138 cells were obtained from ATCC and cultured in DMEM with 10% FBS. 2500 cells were seeded into 96-well plate with 100 μL of media the day before the experiment. Cells were washed twice with 200 μL of assay buffer (20 mM HEPES, pH 7.4; 137 mM NaCl; 5.4 mM KCl; 1.3 mM CaCl2); 4.2 mM NaHCO3; 1 mg/mL glucose) to remove residual inorganic phosphate. After washing, 100 μL of buffer was added to each well, then 100 μL of a mixture of AMP substrate (200 μM) and diluted compound was added to each well. The cells were incubated at 37° C. (with 5% CO2) for 2 hours. 50 μL of supernatant was transferred to a 96-well assay plate and the concentration of inorganic phosphate was determined using malachite green reagent (R&D System; Cat: DY996).

[3] = 0.25 nM hCD73, 25 μM AMP, kinetic read at 360 nm, read-out: CD73 Enzyme Assay IC50

Row | Compound | IC50 [1, 3] [nM] | IC50 [2] [nM] | IC50 ([1]; read-out: IC50) [nM]
1 | O=P(O)(O)COC[C@H]1O[C@@H](n2cnc3c(NCc4ccccc4)nc(Cl)nc32)[C@H](O)[C@@H]1O [Compound 3, [(2R,3S,4R,5R)-5-[6-(benzylamino)-2-chloro-purin-9-yl]-3,4-dihydroxy-tetrahydrofuran-2-yl]methoxymethyl-phosphonic acid] | 100 to 1000 | 10 to 100 | –
2 | Cn1cc(-c2nc(NCc3ccccc3)c3ncn([C@@H]4O[C@H](COCP(=O)(O)O)[C@@H](O)[C@H]4O)c3n2)cn1 [Compound 9, [(2R,3S,4R,5R)-5-[6-(benzylamino)-2-(1-methylpyrazol-4-yl)-purin-9-yl]-3,4-dihydroxy-tetrahydro-furan-2-yl]methoxy-methylphosphonic acid] | 100 to 1000 | > 1000 | –
3 | CC(C)Nc1nc(C#N)nc2c1ncn2[C@@H]1O[C@H](COCP(=O)(O)O)[C@@H](O)[C@H]1O [Compound 16, [(2R,3S,4R,5R)-5-[2-cyano-6-(isopropyl-amino)purin-9-yl]-3,4-dihydroxy-tetrahydrofuran-2-yl]methoxymethyl-phosphonic acid] | 10 to 100 | 100 to 1000 | –
4 | CC(Nc1ncnc2c1ncn2[C@@H]1O[C@H](COCP(=O)(O)O)[C@@H](O)[C@H]1O)c1ccccc1 (stereo partly drawn) [Compound 18, [(2R,3S,4R,5R)-3,4-dihydroxy-5-[6-(1-phenylethylamino)purin-9-yl]tetrahydrofuran-2-yl]methoxymethylphosphonic acid] | 100 to 1000 | 100 to 1000 | –
5 | C[C@@H](Nc1nc(Cl)nc2c1ncn2[C@@H]1O[C@H](COCP(=O)(O)O)[C@@H](O)[C@H]1O)c1ccccc1 [Compound 20, [(2R,3S,4R,5R)-5-[2-chloro-6-[[(1R)-1-phenylethyl]amino]-purin-9-yl]-3,4-dihydroxy-tetrahydro-furan-2-yl]methoxy-methylphosphonic acid] | 10 to 100 | 10 to 100 | –
6 | O=P(O)(O)COC[C@H]1O[C@@H](n2cnc3c(NC4CCCC4)ncnc32)[C@H](O)[C@@H]1O [Compound 32, [(2R,3S,4R,5R)-5-[6-(cyclopentylamino)-purin-9-yl]-3,4-dihydroxy-tetrahydro-furan-2-yl]methoxy-methylphosphonic acid] | 100 to 1000 | 100 to 1000 | –
7 | C[C@H](Nc1nc(C#N)nc2c1ncn2[C@@H]1O[C@H](COCP(=O)(O)O)[C@@H](O)[C@H]1O)c1ccccc1 [Compound 36, [(2R,3S,4R,5R)-5-[2-cyano-6-[[(1S)-1-phenylethyl]amino]purin-9-yl]-3,4-dihydroxy-tetrahydrofuran-2-yl]methoxymethylphosphonic acid; 2,2,2-trifluoroacetic acid] | 10 to 100 | 10 to 100 | –
8 | CCCCCCCCCCCCCCCCOCCCOP(=O)(O)COC[C@H]1O[C@@H](n2ccc3c(NC4CCCC4)nc(Cl)nc32)[C@H](O)[C@@H]1O [Compound 246, [(2R,3S,4R,5R)-5-[2-chloro-4-(cyclopentyl-amino)pyrrolo[2,3-d]-pyrimidin-7-yl]-3,4-dihydroxy-tetrahydro-furan-2-yl]methoxy-methyl-(3-hexadecoxy-propoxy)phosphinic acid] | > 1000 | – | –
9 | CN(C)CCOc1nc(NC2CCCC2)c2ccn([C@@H]3O[C@H](COCP(=O)(O)O)[C@@H](O)[C@H]3O)c2n1 [Compound 259, [(2R,3S,4R,5R)-5-[4-(cyclopentylamino)-2-[2-(dimethylamino)-ethoxy]pyrrolo[2,3-d]-pyrimidin-7-yl]-3,4-dihydroxy-tetrahydro-furan-2-yl]methoxy-methylphosphonic acid] | 100 to 1000 | – | –
10 | O=P(O)(O)COC[C@H]1O[C@@H](n2ccc3c(NC4CCCC4)nc(OCc4ccccn4)nc32)[C@H](O)[C@@H]1O [Compound 264, [(2R,3S,4R,5R)-5-[4-(cyclopentylamino)-2-(2-pyridylmethoxy)-pyrrolo[2,3-d]pyrimidin-7-yl]-3,4-dihydroxy-tetrahydrofuran-2-yl]-methoxymethylphos-phonic acid] | 100 to 1000 | – | –
11 | O=P(O)(O)CP(=O)(O)OC[C@H]1O[C@@H](n2cnc3c(NC4CCCC4)nc(Cl)nc32)[C@H](O)[C@@H]1O [Compound 282, [[(2R,3S,4R,5R)-5-[2-chloro-6-(cyclopentyl-amino)purin-9-yl]-3,4-dihydroxy-tetrahydro-furan-2-yl]methoxy-hydroxy-phosphoryl]-methylphosphonic acid] | < 10 | – | –
12 | Nc1ncnc2c1ncn2[C@@H]1O[C@H](COP(=O)(O)CP(=O)(O)O)[C@@H](O)[C@H]1O [adenosine 5′-(α,β-methylene)diphosphate, reference compound] | – | – | 50

Now from value to molecule, other results behind:

Row | IC50 [1, 3] [nM] | IC50 [2] [nM] | Compound | IC50 ([1]; read-out: IC50) [nM]
13 | > 1000 | > 1000 | O=P(O)(O)COC[C@H]1O[C@@H](n2cnc3c(NCc4ccccc4)ncnc32)[C@H](O)[C@@H]1O [Compound 1, [(2R,3S,4R,5R)-5-[6-(benzylamino)purin-9-yl]-3,4-dihydroxy-tetrahydrofuran-2-yl]methoxymethyl-phosphonic acid] | –
14 | < 10 | 100 to 1000 | N#Cc1nc(NCc2ccccc2)c2ncn([C@@H]3O[C@H](COCP(=O)(O)O)[C@@H](O)[C@H]3O)c2n1 [Compound 4, [(2R,3S,4R,5R)-5-[6-(benzylamino)-2-cyano-purin-9-yl]-3,4-dihydroxy-tetrahydrofuran-2-yl]methoxymethyl-phosphonic acid] | –
15 | 100 to 1000 | > 1000 | CC(C)Nc1ncnc2c1ncn2[C@@H]1O[C@H](COCP(=O)(O)O)[C@@H](O)[C@H]1O [Compound 12, [(2R,3S,4R,5R)-3,4-dihydroxy-5-[6-(iso-propylamino)purin-9-yl]tetrahydrofuran-2-yl]methoxymethyl-phosphonic acid] | –
16 | 10 to 100 | 100 to 1000 | CC(C)Nc1nc(Cl)nc2c1ncn2[C@@H]1O[C@H](COCP(=O)(O)O)[C@@H](O)[C@H]1O [Compound 15, [(2R,3S,4R,5R)-5-[2-chloro-6-(isopropyl-amino)purin-9-yl]-3,4-dihydroxy-tetra-hydrofuran-2-yl]-methoxymethylphos-phonic acid] | –
17 | 10 to 100 | 10 to 100 | C[C@H](Nc1nc(Cl)nc2c1ncn2[C@@H]1O[C@H](COCP(=O)(O)O)[C@@H](O)[C@H]1O)c1ccccc1 [Compound 21, ((((2R,3S,4R,5R)-5-(2-chloro-6-(((S)-1-phenylethyl)amino)-9H-purin-9-yl)-3,4-dihydroxytetrahydrofuran-2-yl)methoxy)methyl)phosphonic acid] | –
18 | – | 10 to 100 | O=P(O)(O)COC[C@H]1O[C@@H](n2ccc3c(NC4CCCC4)nc(C(F)F)nc32)[C@H](O)[C@@H]1O [Compound 239, [(2R,3S,4R,5R)-5-[4-(cyclopentylamino)-2-(difluoromethyl)pyrrolo-[2,3-d]pyrimidin-7-yl]-3,4-dihydroxy-tetra-hydrofuran-2-yl]-methoxymethylphos-phonic acid] | –
19 | 100 to 1000 | – | O=P(O)(O)COC[C@H]1O[C@@H](n2ccc3c(NC4CNC4)nc(Cl)nc32)[C@H](O)[C@@H]1O [Compound 245, [(2R,3S,4R,5R)-5-[4-(azetidin-3-ylamino)-2-chloro-pyrrolo[2,3-d]pyrimidin-7-yl]-3,4-dihydroxy-tetrahydro-furan-2-yl]methoxy-methylphosphonic acid] | –
20 | > 1000 | – | O=P(O)(O)COC[C@H]1O[C@@H](c2scc3c(N4CCCC4)nc(O)nc23)[C@H](O)[C@@H]1O [Compound 302] | –
